The assay has as its system BDF1 mice, P388 leukemia ip, median survival T/C. Nature of the assay: NCI In Vivo Anticancer Drug Screen. Data for tumor model P388 Leukemia (intraperitoneal) in B6D2F1 (BDF1) mice. The settings on record: endpoint: median survival time, higher = longer survival. The procedure, abridged:
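Mice carrying the transplantable tumour receive compound or vehicle. Survival is followed in each arm, and the treated measure is divided by the vehicle measure.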

The mark [1] stands for this setting: dose: 100.0 mg/kg/injection, schedule: Q04DX003 (ip), vehicle: saline with Tween-80.
Where [2] appears, read: dose: 200.0 mg/kg/injection, schedule: Q04DX003 (ip), vehicle: saline with Tween-80.
Setting [3] is: dose: 400.0 mg/kg/injection, schedule: Q04DX003 (ip), vehicle: saline with Tween-80.
[4] abbreviates: dose: 50.0 mg/kg/injection, schedule: Q01DX009 (ip), vehicle: saline.
The mark [5] stands for this setting: dose: 100.0 mg/kg/injection, schedule: Q01DX009 (ip), vehicle: saline.
[6] abbreviates: dose: 200.0 mg/kg/injection, schedule: Q01DX009 (ip), vehicle: saline.
Setting [7] is: dose: 100.0 mg/kg/injection, schedule: Q04DX003 (ip), vehicle: Klucel (hydroxypropylcellulose) (HPC).
Setting [8] is: dose: 200.0 mg/kg/injection, schedule: Q01DX009 (ip), vehicle: Klucel (hydroxypropylcellulose) (HPC).
The mark [9] stands for this setting: dose: 200.0 mg/kg/injection, schedule: Q04DX003 (ip), vehicle: Klucel (hydroxypropylcellulose) (HPC).
Where [10] appears, read: dose: 400.0 mg/kg/injection, schedule: Q04DX003 (ip), vehicle: Klucel (hydroxypropylcellulose) (HPC).
[11] abbreviates: dose: 12.5 mg/kg/injection, schedule: Q01DX009 (ip), vehicle: saline.
The mark [12] stands for this setting: dose: 25.0 mg/kg/injection, schedule: Q01DX001 (ip), vehicle: saline with Tween-80.
Setting [13] is: dose: 50.0 mg/kg/injection, schedule: Q01DX001 (ip), vehicle: saline with Tween-80.
Setting [14] is: dose: 100.0 mg/kg/injection, schedule: Q01DX001 (ip), vehicle: saline with Tween-80.
Where [15] appears, read: dose: 50.0 mg/kg/injection, schedule: Q01DX009 (ip), vehicle: Klucel (hydroxypropylcellulose) (HPC).
Where [16] appears, read: dose: 100.0 mg/kg/injection, schedule: Q01DX009 (ip), vehicle: Klucel (hydroxypropylcellulose) (HPC).
The mark [17] stands for this setting: dose: 100.0 mg/kg/injection, schedule: Q04DX003 (ip), vehicle: other.
Setting [18] is: dose: 400.0 mg/kg/injection, schedule: Q04DX003 (ip), vehicle: other.

The structures appear in SMILES notation. Several values for one entry are separate records, joined by “and”; a condition that tells them apart may be missing. Equal entries are not always repeated. Inconclusive results and toxic doses are left out. Non-standard residues stand in square brackets, D forms with d. Residues, ends and D or L forms follow the SMILES beside them. Ac5c = NC1(C(=O)O)CCCC1

In the case of `CCCCCC1(O)C2CCCC1CCC2` (configuration not stated), the T/C (dose: 50.0 mg/kg/injection, schedule: Q01DX001 (ip), vehicle: saline sonified) was 105 % of control; the T/C (dose: 50.0 mg/kg/injection, schedule: Q01DX001 (ip), vehicle: suspension in saline) was 98 % of control; the T/C (dose: 100.0 mg/kg/injection, schedule: Q01DX001 (ip), vehicle: saline sonified) was 105 % of control; the T/C (dose: 100.0 mg/kg/injection, schedule: Q01DX001 (ip), vehicle: suspension in saline) is 104 % of control; the T/C (dose: 200.0 mg/kg/injection, schedule: Q01DX001 (ip), vehicle: suspension in saline) was 107 % of control.
Regarding `CC/C(=N/O)c1ccccc1`, the T/C is, setting by setting: under setting [1], 90 % of control; under setting [2], 110 % of control; under setting [3], 105 % of control.
For `CCOC(=O)C1(C(C)C)OC2CCCCCN2C1=O` (configuration not stated), the T/C was 100 % of control (dose: 50.0 mg/kg/injection, schedule: Q04DX003 (ip), vehicle: saline with Tween-80); 108 % of control under setting [1]; 100 % of control under setting [2]; 108 % of control under setting [3].
Take `NC(=O)CCCNC(=O)CCC[c-]1[c-][c-][c-][c-]1.[Fe].[c-]1[c-][c-][cH-][c-]1`: the T/C is, setting by setting: (dose: 6.25 mg/kg/injection, schedule: Q01DX009 (ip), vehicle: other) 100 % of control; (dose: 12.5 mg/kg/injection, schedule: Q01DX009 (ip), vehicle: other) 98 % of control; (dose: 25.0 mg/kg/injection, schedule: Q01DX009 (ip), vehicle: other) 100 % of control; (dose: 50.0 mg/kg/injection, schedule: Q01DX009 (ip), vehicle: other) 114 % of control; (dose: 100.0 mg/kg/injection, schedule: Q01DX009 (ip), vehicle: other) 121 % of control.
With `CC[N+](CC)(CC)CC[N+](CC)(CC)CC`, the T/C under setting [4] was 95 % of control; the T/C under setting [5] was 96 % of control and 88 % of control; the T/C under setting [6] was 95 % of control and 91 % of control.
On to `CCCCCC(C[N+](C)(C)C)C(=O)/C=C/c1ccc(Cl)cc1` (configuration not stated), for which the T/C is 113 % of control (dose: 6.25 mg/kg/injection, schedule: Q01DX001 (ip), vehicle: Klucel (hydroxypropylcellulose) (HPC)); 100 % of control (dose: 12.5 mg/kg/injection, schedule: Q01DX001 (ip), vehicle: Klucel (hydroxypropylcellulose) (HPC)); 101 % of control (dose: 25.0 mg/kg/injection, schedule: Q01DX001 (ip), vehicle: Klucel (hydroxypropylcellulose) (HPC)); 88 % of control (dose: 50.0 mg/kg/injection, schedule: Q01DX001 (ip), vehicle: Klucel (hydroxypropylcellulose) (HPC)).
On to `COc1ccc(OC)c([N+](=O)[O-])c1`, for which the T/C was 100 % of control under setting [7]; 95 % of control under setting [8]; 95 % of control under setting [9]; 90 % of control (dose: 400.0 mg/kg/injection, schedule: Q01DX009 (ip), vehicle: Klucel (hydroxypropylcellulose) (HPC)); 100 % of control under setting [10].
With `CC(/C=N/N=C(N)N)=N\N=C(N)N.O=C([O-])C(=O)[O-].O=C([O-])C(=O)[O-].[Nb+5].[O-][O-].[O-][O-]`, the T/C is, setting by setting: under setting [11], 97 % of control; under setting [4], 90 % of control.
Turning to `CN1C(=O)NC2C(CO)OC1C2O` (configuration not stated), the T/C is 104 % of control (dose: 100.0 mg/kg/injection, schedule: Q01DX001 (ip), vehicle: saline); 104 % of control (dose: 200.0 mg/kg/injection, schedule: Q01DX001 (ip), vehicle: saline); 100 % of control (dose: 400.0 mg/kg/injection, schedule: Q01DX001 (ip), vehicle: saline).
Take `CNC1=C2NC(=O)/C(C)=C\C=C\C(C)C(O)C(C)C(O)C(C)C(OC(C)=O)C(C)C(OC)/C=C/OC3(C)Oc4c(C)c(O)c(c(c4C3=O)C1=O)C2=O` (configuration not stated): the T/C was 95 % of control (dose: 50.0 mg/kg/injection, schedule: Q01DX009 (ip), vehicle: saline with Tween-80); 90 % of control (dose: 100.0 mg/kg/injection, schedule: Q01DX009 (ip), vehicle: saline with Tween-80); 100 % of control (dose: 200.0 mg/kg/injection, schedule: Q01DX009 (ip), vehicle: saline with Tween-80).
`C(=N/Nc1ccccn1)/c1cccnc1`: the T/C was 100 % of control under setting [12], 98 % of control under setting [13] and 100 % of control under setting [14].
As for `OCc1cc(Cl)ccc1O`, the T/C by setting is: under setting [15], 101 % of control; under setting [16], 103 % of control; under setting [17], 100 % of control; (dose: 132.0 mg/kg/injection, schedule: Q04DX003 (ip), vehicle: other) 95 % of control; under setting [8], 110 % of control; (dose: 300.0 mg/kg/injection, schedule: Q04DX003 (ip), vehicle: other) 108 % of control. For the same compound, the T/C under setting [18] is 109 % of control.
Regarding `CC(=N\[O-])/C(C)=N/O.CC(=N\[O-])/C(C)=N/O.CCCN.[Cl-].[Cl-].[Rh+3]`, the T/C was 98 % of control (dose: 6.25 mg/kg/injection, schedule: Q01DX009 (ip), vehicle: saline); 110 % of control under setting [11]; 89 % of control under setting [4]; 94 % of control under setting [5]; 110 % of control under setting [6].
With `NCC(=O)NC1(C(=O)O)CCCC1` (H-Gly-[Ac5c]-OH), the T/C is, setting by setting: under setting [5], 113 % of control; under setting [6], 90 % of control.
In the case of `O=C(O)COc1ccccc1OCC(=O)O`, the T/C is 109 % of control under setting [15], 100 % of control under setting [16] and 100 % of control under setting [8].
Turning to `COc1cc(N(CCCl)CCCl)c(OC)cc1/C=N/NC(=O)CC(N)C(=O)O` (configuration not stated), the T/C by setting is: (dose: 16.0 mg/kg/injection, schedule: Q01DX009 (ip), vehicle: Klucel (hydroxypropylcellulose) (HPC)) 153 % of control; (dose: 25.0 mg/kg/injection, schedule: Q01DX009 (ip), vehicle: Klucel (hydroxypropylcellulose) (HPC)) 150 % of control and 179 % of control; (dose: 35.0 mg/kg/injection, schedule: Q01DX009 (ip), vehicle: Klucel (hydroxypropylcellulose) (HPC)) 153 % of control; under setting [15], 177 % of control; (dose: 65.0 mg/kg/injection, schedule: Q04DX003 (ip), vehicle: Klucel (hydroxypropylcellulose) (HPC)) 181 % of control; under setting [7], 235 % of control. Further, the T/C is 240 % of control and 247 % of control (dose: 132.0 mg/kg/injection, schedule: Q04DX003 (ip), vehicle: Klucel (hydroxypropylcellulose) (HPC)); 265 % of control and 272 % of control and 180 % of control under setting [9]; 100 % of control under setting [10].
`CCCCCCCCCC(=O)CCCCC`: the T/C under setting [17] is 109 % of control; the T/C (dose: 200.0 mg/kg/injection, schedule: Q04DX003 (ip), vehicle: other) was 109 % of control; the T/C under setting [18] is 113 % of control.
With `CCNC(=O)N(CC(N)=O)c1ncc([N+](=O)[O-])s1`, the T/C runs as follows: (dose: 12.5 mg/kg/injection, schedule: Q01DX001 (ip), vehicle: saline with Tween-80) 98 % of control; under setting [12], 106 % of control; under setting [13], 98 % of control; (dose: 50.0 mg/kg/injection, schedule: Q01DX005 (ip), vehicle: saline with Tween-80) 94 % of control; under setting [14], 93 % of control; (dose: 100.0 mg/kg/injection, schedule: Q01DX005 (ip), vehicle: saline with Tween-80) 86 % of control. Further, the T/C runs as follows: (dose: 200.0 mg/kg/injection, schedule: Q01DX001 (ip), vehicle: saline with Tween-80) 98 % of control; (dose: 200.0 mg/kg/injection, schedule: Q01DX005 (ip), vehicle: saline with Tween-80) 96 % of control.

For the origin of these results see PubChem BioAssay AID328 (DTP/NCI, 2004).
